Reference: BindingDB's records for doi:10.1016/s0960-894x(98)00316-3 (Nippon Roche Research Center, 1998)

biological target: Lanosterol 14-alpha demethylase (Candida albicans) (UniProt P10613); assay: In vitro inhibition of cytochrome P450 lanosterol C14 demethylase in Candida albicans CY1005
Sequence (P10613 whole entry, looked up): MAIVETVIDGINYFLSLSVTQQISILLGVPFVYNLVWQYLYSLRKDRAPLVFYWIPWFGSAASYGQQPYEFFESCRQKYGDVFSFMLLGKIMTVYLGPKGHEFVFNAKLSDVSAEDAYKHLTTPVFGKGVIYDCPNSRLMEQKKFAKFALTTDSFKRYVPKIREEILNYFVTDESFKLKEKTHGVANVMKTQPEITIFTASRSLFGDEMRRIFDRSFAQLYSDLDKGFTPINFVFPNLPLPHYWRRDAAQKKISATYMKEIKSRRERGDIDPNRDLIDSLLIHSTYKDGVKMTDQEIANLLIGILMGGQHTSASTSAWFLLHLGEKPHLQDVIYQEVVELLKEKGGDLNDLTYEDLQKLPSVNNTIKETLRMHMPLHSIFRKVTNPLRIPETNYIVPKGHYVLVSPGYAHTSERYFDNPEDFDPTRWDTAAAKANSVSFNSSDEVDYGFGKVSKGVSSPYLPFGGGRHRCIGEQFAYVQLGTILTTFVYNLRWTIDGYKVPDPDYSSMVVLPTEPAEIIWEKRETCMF

Compound	IC50
CC1(C)CC[C@@H](COc2ccc(OC(F)(F)F)cc2)[C@H](Cn2cncn2)C1OCCO (some centres not stated)	22.5 nM
CCc1ccc(CC[C@@H]2CCC(C)(C)/C(=N/OC)[C@H]2Cn2cncn2)cc1	86.8 nM
CCc1ccc(CC[C@@H]2CCC(C)(C)/C(=N/O)[C@H]2Cn2cncn2)cc1	73.3 nM
CCc1ccc(CC[C@@H]2CCC(C)(C)C(OCCO)[C@H]2Cn2cncn2)cc1 (some centres not stated)	83 nM

Results, then the compound that gave them:

IC50	Compound
130 nM	CC1(C)CC[C@@H](COc2ccc(OC(F)(F)F)cc2)[C@H](Cn2cncn2)/C1=N\O
56.3 nM	CO/N=C1\[C@@H](Cn2cncn2)[C@H](COc2ccc(OC(F)(F)F)cc2)CCC1(C)C
118 nM	COC1[C@@H](Cn2cncn2)[C@H](COc2ccc(OC(F)(F)F)cc2)CCC1(C)C (some centres not stated)
